Measurements as given in PMC7435865, “Antinociceptive and Cytotoxic Activity of Opioid Peptides with Hydrazone and Hydrazide Moieties at the C-Terminus” (Molecules, 2020).
Where “and” joins values, the source holds several entries; their conditions need not be identical. Equal entries are not always repeated. Where two headings read alike, the source gives them in different places. [ ]: non-standard residue; d: D form.

What was measured:
µ opioid receptor (MOR) [1] = target: T1, µ opioid receptor (MOR) (Rattus norvegicus, UniProt P33535); experiment: competitive radioligand binding, [3H]DAMGO displacement in rat brain homogenate
T1 construct: from tissue; host or cells: rat brain (membrane fractions of homogenate)
Protocol: (§1) The synthesized compounds were assayed for binding affinity to the μ- and δ-opioid (MOR and DOR, respectively), as well as to the neurokinin-1 receptors (NK1R). The determinations were performed in rat brain homogenates by competitive displacement of selective radioligands. The results are shown in Table 2 as the half-maximal inhibitory concentration (IC50) with the standard error of the mean (SEM).
(§2) The binding affinity of compounds 1b–6a for MOR, DOR, and NK1R was determined in competitive radioligand binding assays according to the method previously described. The specific radioligands were [^3H]DAMGO (DAMGO, [Tyr^1-3,5-^3H])), [^3H][Ile^5,6]DELT II ([Ile^5,6]Deltorphin II, [Tyr^l-3,5-^3H]) and [^3H]Substance P (Substance P, [Leu-3,4,5-^3H]), for experiments with MOR, DOR, and NK1R, respectively. The first two were obtained from Isotope Laboratory, Biological Research Centre, Institute of Biochemistry (Szeged, Hungary), whereas the latter was purchased from Perkin Elmer (Perkin Elmer Inc., Krakow, Poland). Membrane fractions of rat brain homogenate were incubated at 25 °C for 60 min in the presence of radioligands (0.5 nM) specific for each receptor and increasing concentrations of the tested compounds. To measure non-specific binding, 10 μM naloxone was used as the competitor for opioid receptors and 10 μM cold Substance P was used for NK1R. The reactions were carried out in assay buffer containing Tris-HCl (pH 7.4) with an addition of bovine serum albumin (BSA) and protease inhibitors (bacitracin, bestatin, captopril). After the incubation, the binding reactions were terminated by rapid filtration with M-24 Cell Harvester (Brandel/USA) through GF/B Whatman glass fiber strips (presoaked with 0.5% PEI in order to minimize non-specific binding). Radioactivity retained on the filters was measured in MicroBeta LS on a Trilux scintillation counter (PerkinElmer, Santa Clara, CA, USA). The experiments were repeated at least two times in duplicate. The IC50 value for each compound was determined using GraphPad Prism.

δ opioid receptor (DOR) = target: T2, δ opioid receptor (DOR) (Rattus norvegicus, UniProt P33533); experiment: competitive radioligand binding, [3H][Ile5,6]Deltorphin II displacement in rat brain homogenate
T2 construct: from tissue; host or cells: rat brain (membrane fractions of homogenate)
Protocol: as §1, §2

[2] = target: T3, neurokinin-1 receptor (NK1R) (Rattus norvegicus, UniProt P14600); experiment: competitive radioligand binding, [3H]Substance P displacement in rat brain homogenate
T3 construct: from tissue; host or cells: rat brain (membrane fractions of homogenate)
Protocol: as §1, §2

male Wistar rats [3] = experiment: tail flick test after intrathecal administration; type: in vivo, rat; conditions: for ED50 ± SEM: tail flick, i.t., n = 4–8
Protocol: Analgesic activity of compounds 1b–1d was measured in the tail flick test after intrathecal administration to rats, according to a procedure thoroughly described before. First, adult male Wistar rats weighing 200–250 g were prepared for intrathecal administration by the catherization method described previously by Yaksh and Rudy. Each experimental group consisted of 4–8 rats. Next, spinally mediated analgesia was assessed in the tail flick test utilizing the Plantar Test and Tail Flick Analgesia Meter apparatus (IITC Life Science Inc., Los Angeles, CA, USA). Withdrawal latency was measured in triplicate. The cut-off latencies were set at 7 s to avoid burns. The measurements were performed before the administration of the tested compound (time 0) and 5, 15, 30, 60, and 120 min after injection. The control group received injections of 0.9% NaCl. Data from in vivo studies are presented as means ± SEM and were analyzed using two-way repeated measures of ANOVA followed by Dunnett-corrected multiple comparisons. Significance was defined as * p < 0.033, ** p < 0.002, *** p < 0.001. Data were analyzed using GraphPad Prism. The responses were expressed as a percentage of a maximum possible effect (%MPE), calculated as ((T1 − T0)/(T2 − T0)) × 100, where T0 and T1 are latencies before and after drug injection, respectively, and T2 is the cut-off time. All experimental procedures were approved by The Local Committee for Ethics in Animal Experiments, permission no. 46/2013.

[4] = system: MeW155 human melanoma cells; experiment: melanoma cell number in culture after incubation with compound; type: cell-based; conditions: 50 µM, 96 h incubation
Protocol: The determination was performed by counting the cells of the MeW155 cell line after incubating them with 50 µM of the tested compounds.
The cells were plated in 24-well plates (5000 cells per well) and incubated for 24 h in Eagle’s medium containing 10% fetal bovine serum and 1% solution of penicillin and streptomycin. […] Control cells were treated with 1% DMSO only. After 96 h of incubation, the cell suspension was first lysed in lysis buffer (ReagentA, ChemoMetec A/S) and then stabilized in stabilization buffer (ReagentB, ChemoMetec A/S). The number of […] was quantified in a propidium iodide cassette with the use of a NucleoCounter® NC-100™ (ChemoMetec A/S) cell counter. The tests were performed in triplicate. The results were normalized so that the values obtained for the control were 100%.

MOR = conditions: cited from earlier work
DOR = target: DOR; design: method as in PMID 17927164; conditions: cited from earlier work
µ opioid receptor (MOR) [5] = target: T1, µ opioid receptor (MOR); design: method as in PMID 28105278; conditions: rat brain homogenate; previously reported ref 33; read-out: MOR IC50 ± SEM; cited from earlier work
male Wistar rats [6] = system: male Wistar rats; design: method as in PMID 28105278; conditions: already published ref 33, cited from earlier work
[7] = 0.5 nmol/rat i.t., 15 min after injection

T1 sequence (P33535 whole entry): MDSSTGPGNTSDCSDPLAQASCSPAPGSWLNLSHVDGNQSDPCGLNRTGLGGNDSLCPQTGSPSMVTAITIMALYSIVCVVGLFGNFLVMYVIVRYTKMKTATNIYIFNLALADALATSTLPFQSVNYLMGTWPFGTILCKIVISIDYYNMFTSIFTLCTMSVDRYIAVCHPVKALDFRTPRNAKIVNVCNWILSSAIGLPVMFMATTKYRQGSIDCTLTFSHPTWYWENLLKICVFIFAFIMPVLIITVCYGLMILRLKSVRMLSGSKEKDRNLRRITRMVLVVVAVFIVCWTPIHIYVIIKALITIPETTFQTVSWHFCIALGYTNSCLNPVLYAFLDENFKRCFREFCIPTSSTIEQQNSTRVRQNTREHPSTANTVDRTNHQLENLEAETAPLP
T2 sequence (P33533 whole entry): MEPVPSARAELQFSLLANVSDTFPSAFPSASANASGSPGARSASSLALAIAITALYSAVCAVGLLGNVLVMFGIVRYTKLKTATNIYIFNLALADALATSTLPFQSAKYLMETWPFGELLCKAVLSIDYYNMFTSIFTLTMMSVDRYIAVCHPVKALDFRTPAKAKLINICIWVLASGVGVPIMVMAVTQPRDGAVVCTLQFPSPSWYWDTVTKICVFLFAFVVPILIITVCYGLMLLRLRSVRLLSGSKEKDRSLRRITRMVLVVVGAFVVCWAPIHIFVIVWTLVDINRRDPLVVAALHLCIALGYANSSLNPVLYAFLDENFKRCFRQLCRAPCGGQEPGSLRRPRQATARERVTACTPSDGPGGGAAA
T3 sequence (P14600 whole entry): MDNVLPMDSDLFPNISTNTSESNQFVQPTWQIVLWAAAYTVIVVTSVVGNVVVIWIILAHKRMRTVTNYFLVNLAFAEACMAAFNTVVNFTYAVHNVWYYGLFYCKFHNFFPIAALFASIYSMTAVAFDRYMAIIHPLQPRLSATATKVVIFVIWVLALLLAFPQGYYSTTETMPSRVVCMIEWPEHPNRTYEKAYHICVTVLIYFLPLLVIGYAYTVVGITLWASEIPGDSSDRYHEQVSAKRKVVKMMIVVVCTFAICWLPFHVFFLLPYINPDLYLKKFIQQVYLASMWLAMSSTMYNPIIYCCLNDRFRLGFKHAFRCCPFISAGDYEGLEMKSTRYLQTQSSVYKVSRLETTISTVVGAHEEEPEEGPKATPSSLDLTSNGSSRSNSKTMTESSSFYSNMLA

C[C@@H](NC(=O)[C@@H](N)Cc1ccc(O)cc1)C(=O)NCC(=O)N[C@@H](Cc1ccccc1)C(=O)NNC(=O)c1cc(C(F)(F)F)cc(C(F)(F)F)c1 [1b, H-Tyr-D-Ala-Gly-Phe-NH-NH-C(=O)-3,5-(CF3)2Ph]
IC50 (µ opioid receptor (MOR) [1]): 111 ± 12.7 nM
IC50 (δ opioid receptor (DOR)): 413 ± 105 nM
IC50 [2]: > 1000 nM
area under the time course curve (AUC) of analgesic effect (male Wistar rats [3]; 0.5 nmol/rat i.t.): 3421 ± 673 units
antinociceptive effect, % of maximal possible effect (male Wistar rats [3]; [7]): 65 ± 6 % MPE
effect on number of melanoma cells (in words) [4]: no effect

C[C@@H](NC(=O)[C@@H](N)Cc1ccc(O)cc1)C(=O)NCC(=O)N[C@@H](Cc1ccccc1)C(=O)NNC(=O)Cc1cc(C(F)(F)F)cc(C(F)(F)F)c1 [1c, H-Tyr-D-Ala-Gly-Phe-NH-NH-C(=O)-CH2-3,5-(CF3)2Ph]
IC50 (µ opioid receptor (MOR) [1]): 5.25 ± 1.14 nM
IC50 (δ opioid receptor (DOR)): 162 ± 8.75 nM
IC50 [2]: > 1000 nM
area under the time course curve (AUC) of analgesic effect (male Wistar rats [3]; 0.5 nmol/rat i.t.): 1417 ± 730.1 units
antinociceptive effect, % of maximal possible effect (male Wistar rats [3]; [7]): 31 ± 6 % MPE
antinociceptive effect, % of maximal possible effect (male Wistar rats [3]; 1 nmol/rat i.t., 15 min): 85 ± 7 % MPE
ED50 ± SEM (male Wistar rats [3]): 0.56 ± 0.04 nmol/rat
effect on number of melanoma cells (in words) [4]: no effect

C[C@@H](NC(=O)[C@@H](N)Cc1ccc(O)cc1)C(=O)NCC(=O)N[C@@H](Cc1ccccc1)C(=O)NNC(=O)NN=Cc1cc(C(F)(F)F)cc(C(F)(F)F)c1 [1d, H-Tyr-D-Ala-Gly-Phe-NH-NH-C(=O)-NH-N=CH-3,5-(CF3)2Ph]
IC50 (µ opioid receptor (MOR) [1]): 4.73 ± 0.02 nM
IC50 (δ opioid receptor (DOR)): 44 ± 2.75 nM
IC50 [2]: > 1000 nM
area under the time course curve (AUC) of analgesic effect (male Wistar rats [3]; 0.5 nmol/rat i.t.): 5732 ± 1161 units
antinociceptive effect, % of maximal possible effect (male Wistar rats [3]; [7]): ~ 80 % MPE
antinociceptive effect, % of maximal possible effect (male Wistar rats [3]; 2 nmol/rat i.t., 120 min after administration): 39 ± 10 % MPE
antinociceptive effect, % of maximal possible effect (male Wistar rats [3]; 4 nmol/rat i.t., 15 min): 99 ± 7 % MPE
ED50 ± SEM (male Wistar rats [3]): 0.32 ± 0.04 nmol/rat
effect on number of melanoma cells (in words) [4]: no effect

H2N-Tyr-D-Ala-Gly-Phe-NH-NH←Phe←Gly←D-Ala←Tyr-NH2 [biphalin]
IC50 (MOR): 1.4 nM

H-Tyr-D-Ala-Gly-Phe-NH2
Ki (MOR; read-out: MOR Ki): 2.8 nM
Ki (DOR): 300 nM

H-Tyr-D-Ala-Gly-Phe-NH-N=CH-3,5-(CF3)2Ph [1a]
effect on number of melanoma cells (in words) [4]: significantly decrease the number of melanoma cells
number of MeW155 cells, % of the control value [4]: 39 ± 4 % of the control
IC50 (µ opioid receptor (MOR) [5]): 12.7 ± 0.75 nM
antinociceptive effect, % of maximal possible effect (male Wistar rats [6]; [7]): ~ 80 % MPE and 80 ± 9 % MPE
area under the time course curve (AUC) of analgesic effect (male Wistar rats [6]; 0.5 nmol/rat i.t.): 4483 ± 592 units
ED50 ± SEM (male Wistar rats [6]; tail flick, i.t.): 0.18 ± 0.05 nmol/rat

H-Tyr-D-Ala-Gly-Phe-NH-NH2
IC50 (MOR): 4.7 nM

H-Tyr-D-Ala-Trp-Cyn
IC50 (MOR): 77.6 nM

H-Tyr-Pro-Phe-NH2
Ki (MOR; read-out: MOR inhibition constant Ki): 46.3 nM

H-Tyr-[dA]-Trp-OH
IC50 (MOR): 977 nM

H-Y[dA]FF-NH2 [TAPP]
IC50 (MOR; determined in the authors' laboratory): 5.1 nM

H-Y[dA]GW-NH2
times weaker as a MOR binder than the [Phe4]-variant (MOR; versus H-Tyr-D-Ala-Gly-Phe-NH2): about 2 times

Tyr-Pro-Phe-Phe-NH2 [endomorphin-2]
IC50 (MOR): 3.9 nM
